The subject of data set [1] is L. infantum .uy (parasites isolated from two dogs in the first Leishmaniasis outbreak in Uruguay). Briefly: in vitro activity against L. infantum isolated from dogs in Uruguay. It counts as cell-based, Leishmania infantum. Particulars: for IC50: Leishmania infantum, read-out: IC50 ± %SD (µM) L. infantum .uy. As for the experimental part: Compounds were dissolved in dimethylsulfoxide (DMSO).
For assessing the amastigote form of all Leishmania strains were cultured in the RPMI described above. Parasites were seeded at 1 × 10^6 cells/mL and at each time point counted at least five times to obtain a growth curve. […] Control conditions of parasites without drug (100% growth) and medium without parasites were included. After 72 h at 28 °C parasite viability was determined by the resazurin method described. Infection with L. infantum. THP-1 monocytes (ATCC®TIB-202™) were grown following ATCC recommendations and seeded at 30,000 cells/well onto 18-mm round glass coverslips in 12 wells. For stimulation cells were incubated with 100 nM of PMA for 48 h, PMA was washed and cells left with growth media for 24 h more after incubation with parasites. 30,000 parasites/well were added and left to interact. After 48 h, coverslips were washed with PBS, fixed with 95% (v/v) ethanol, and stained with Fluoroshield™ with DAPI (Sigma). Infectivity was assessed considering invasion and replication capacity counting infected cells and parasites per infected cell, respectively. Infectivity index calculation = (% of infected cells X (amastigotes per cell))/number of total counted cells. Image acquisition was made with a Leica TCS-SP5 laser scanning confocal microscope (Leica Microsystems GmbH, Wetzlar, Germany) using the LASAF v.2 software (Leica Microsystems, Wetzlar, Germany) and observed using a 356 nm laser excitation line and an emission bandwidth from 461 nm under a 20× water immersion objective. Further image analysis, including quantitation and processing of figures were made using Fiji (http://fiji.sc/).

The subject of data set [2] is L. infantum (MHOM/BR/2002/LPC-RPV) promastigotes. Briefly: in vitro anti-Leishmania activity, promastigotes, resazurin. The data set is classed as cell-based, Leishmania infantum. For orientation: Resazurin is reduced to fluorescent resorufin, in cell work by metabolically active cells.
For data set [3], the system named is promastigotes L. braziliensis/ L. amazonensis. As to the kind of experiment: in vitro anti-Leishmania activity, promastigotes (Table 1S). It counts as cell-based. The settings on record: read-out: IC50 ± %SD (µM) promastigotes L. braziliensis/ L. amazonensis.
Data set [4] concerns T. cruzi epimastigotes, Tulahuen 2 strain (genotype TcVI). As to the kind of experiment: in vitro anti-T. cruzi activity, epimastigote growth (absorbance 600 nm). It counts as cell-based, Trypanosoma cruzi. How it is done:
Control parasites were cultivated in 0.4% DMSO. Each concentration of the compound was evaluated in duplicate.

For data set [5], the system named is L. amazonensis (promastigotes). Briefly: in vitro anti-Leishmania activity, promastigotes, resazurin. It counts as cell-based. The settings on record: maximum dose tested 25 µM, read-out: IC50 ± %SD (µM) L. amazonensis.
The test system of data set [6] is J774.1 murine macrophages. Briefly: nonspecific cytotoxicity on mammalian cells, MTT. The settings on record: for IC50: Mus musculus, J774.1, 48 h, MTT, read-out: IC50 ± SD (µM) Murine Macrophages; for SI J774.1/T. cruzi: ratio IC50 murine macrophages / IC50 T. cruzi epimastigotes. It counts as cell-based.
[7] abbreviates: Leishmania infantum, promastigotes, maximum dose tested 25 µM, read-out: IC50 ± %SD (µM) L. infantum.
[8] abbreviates: Trypanosoma cruzi, TULAHUEN, epimastigotes, maximum dose tested 25 µM, read-out: IC50 ± %SD (µM) T. cruzi.
Setting [9] is: parasites isolated from two dogs in Uruguay, maximum dose tested 25 µM.

Read-outs that look alike come from different tables or passages of the source.

Consider 15 compounds from PMC6832524, “A Nature-Inspired Design Yields a New Class of Steroids Against Trypanosomatids” (Molecules, 2019).

What is called melting point is the temperature of the solid-liquid transition.

On to `C[C@]12CC[C@H]3[C@@H](CC=C4CC(O)CC[C@@]43C)[C@@H]1CC[C@@H]2C(=O)/C=C/c1cccnc1Br` (some centres unmarked) [Compound 1], for which the melting point fell in the range of 193 to 195 °C. For the same compound, the IC50 in data set [1] is greater than 25 µM. For the same compound, the IC50 in data set [2] (setting [7]) is greater than 25 µM. Besides, the IC50 in data set [3] was greater than 25 µM. In data set [4] (setting [8]), the IC50 is greater than 25 µM. For the same compound, the IC50 in data set [5] is greater than 25 µM.
For the compound `C[C@]12CC[C@H]3[C@@H](CC=C4CC(O)CC[C@@]43C)[C@@H]1CC[C@@H]2C(=O)/C=C/c1ccc(Cl)cc1` (stereo partly drawn) [Compound 3, (2E)-3-(4-Chlorophenyl)-1-((10R,13S)-2,3,4,7,8,9,10,11,12,13,14,15,16,17-tetradecahydro-3(β)-hydroxy-10,13-dimethyl-1H-cyclo-penta[a]phenanthren-17(β)-yl)prop-2-en-1-one], the melting point was in the range of 159 to 161 °C. Besides, the IC50 in data set [1] is greater than 25 µM. Also, the IC50 in data set [2] (setting [7]) was greater than 25 µM. Besides, in data set [3], the IC50 is greater than 25 µM. Also, the IC50 in data set [4] (setting [8]) was greater than 25 µM. Besides, the IC50 in data set [5] was greater than 25 µM.
With `C[C@]12CC[C@H]3[C@@H](CC=C4CC(O)CC[C@@]43C)[C@@H]1CC[C@@H]2C(=O)/C=C/c1cccc(Br)c1` (some centres unmarked) [Compound 4], the melting point is 159 to 161 °C. Further, in data set [1], the “active against the strains isolated from Uruguayan dogs, in words” value is “not” and the IC50 is greater than 25 µM. Further, in data set [2], the “activity against Leishmania infantum from Fiocruz collection, in words” value was “active”. Besides, in data set [2] (setting [7]), the IC50 is greater than 25 µM. In addition, in data set [3], the IC50 is greater than 25 µM. Besides, the IC50 in data set [4] (setting [8]) is 20 ± 5 µM. For the same compound, the IC50 in data set [5] is greater than 25 µM.
Consider `C[C@]12CC[C@H]3[C@@H](CC=C4CC(O)CC[C@@]43C)[C@@H]1CC[C@@H]2C(=O)/C=C/c1ccccc1` (stereo partly drawn) [Compound 5, (2E)-1-((10R,13S)-2,3,4,7,8,9,10,11,12,13,14,15,16,17-tetradecahydro-3(β)-hydroxy-10,13-dimethyl-1H-cyclopenta[a]phenan-thren-17(β)-yl)-3-phenylprop-2-en-1-one], for which the IC50 in data set [1], in data set [2] (setting [7]), in data set [3], in data set [4] (setting [8]) and in data set [5] was greater than 25 µM throughout.
Compound `C[C@]12CC[C@H]3[C@@H](CC=C4CC(O)CC[C@@]43C)[C@@H]1CC[C@@H]2C(=O)/C=C/C=C/c1ccccc1` (stereo partly drawn) [Compound 6, (2E,4E)-1-((8S,9S,10R,13S,14S,17S)-3-hydroxy-10,13-dimethyl-2,3,4,7,8,9,10,11,12,13,14,15,16,17-tetradecahydro-1H-cyclopenta[a]phenanthren-17-yl)-5-phenylpenta-2,4-dien-1-one] showed a melting point of 116 to 119 °C. Also, in data set [1], the IC50 was greater than 25 µM. Moreover, the IC50 in data set [2] (setting [7]) is greater than 25 µM. For the same compound, the IC50 in data set [3] is greater than 25 µM. The IC50 in data set [4] (setting [8]) is greater than 25 µM. In addition, the IC50 in data set [5] is greater than 25 µM.
As for `C[C@]12CC[C@H]3[C@@H](CC=C4CC(O)CC[C@@]43C)[C@@H]1CC[C@@H]2C(=O)/C=C/C=C/c1ccco1` (stereo partly drawn) [Compound 7, (2E,4E)-5-(furan-2-yl)-1-((8S,9S,10R,13S,14S,17S)-3-hydroxy-10,13-dimethyl-2,3,4,7,8,9,10,11,12,13,14,15,16,17-tetradecahydro-1H-cyclopenta[a]phenanthren-17-yl)penta-2,4-dien-1-one], the melting point was in the range of 100 to 103 °C. In data set [1], the IC50 is greater than 25 µM. The IC50 in data set [2] (setting [7]) was greater than 25 µM. Also, the IC50 in data set [3] is greater than 25 µM. Besides, in data set [4] (setting [8]), the IC50 was greater than 25 µM. The IC50 in data set [5] is greater than 25 µM.
Regarding `C=CCn1c(C(=O)N2CCN(CC=Cc3ccccc3)CC2)cs/c1=N/N=C(/C)[C@@H]1CC[C@H]2[C@@H]3CC=C4CC(O)CC[C@]4(C)[C@H]3CC[C@]12C` (stereo partly drawn) [Compound 12, ((Z)-3-allyl-2-((E)-(1-((8S,9S,10R,13S,14S,17R)-3-hydroxy-10,13-dimethyl-2,3,4,7,8,9,10,11,12,13,14,15,16,17-tetradecahydro-1H-cyclopenta[a]phenanthren-17-yl)ethylidene)hydrazono)-2,3-dihydrothiazol-4-yl)(4-cinnamylpiperazin-1-yl)methanone], the IC50 in data set [1], in data set [2] (setting [7]), in data set [3] and in data set [4] (setting [8]) was greater than 25 µM throughout.
For `C/C(=N\Nc1nc(C(=O)N2CCN(C/C=C\c3ccccc3)CC2)cs1)[C@@H]1CC[C@H]2[C@@H]3CC=C4CC(O)CC[C@]4(C)[C@H]3CC[C@]12C` (stereo partly drawn) [Compound 13, (2-((E)-2-(1-((8S,9S,10R,13S,14S,17R)-3-hydroxy-10,13-dimethyl-2,3,4,7,8,9,10,11,12,13,14,15,16,17-tetradecahydro-1H-cyclopenta[a]phenanthren-17-yl)ethylidene)hydrazinyl)thiazol-4-yl)(4-((Z)-3-phenylallyl)piperazin-1-yl)methanone], the IC50 in data set [1], in data set [2] (setting [7]), in data set [3] and in data set [4] (setting [8]) was greater than 25 µM each time.
In the case of `C=CCn1c(C(=O)NCC(=O)OCC)cs/c1=N/N=C(/C)[C@@H]1CC[C@H]2[C@@H]3CC=C4CC(O)CC[C@]4(C)[C@H]3CC[C@]12C` (stereo partly drawn) [Compound 14, Ethyl-2-((Z)-3-allyl-2-((E)-(1-((8S,9S,10R,13S,14S,17R)-3-hydroxy-10,13-dimethyl-2,3,4,7,8,9,10,11,12,13,14,15,16,17-tetradecahydro-1H-cyclopenta[a]phenanthren-17-yl)ethylidene)hydrazono)-2,3-dihydrothiazole-4-carboxamido)acetate], the “active against the strains isolated from Uruguayan dogs, in words” value in data set [1] is “not”. For the same compound, the IC50 in data set [1] was greater than 25 µM; in data set [2] (setting [7]) it was greater than 25 µM; in data set [3] it was greater than 25 µM; in data set [4] (setting [8]), 8 ± 2 µM; in data set [6], 100 ± 8 µM. In addition, in data set [2], the “activity against Leishmania infantum from Fiocruz collection, in words” value is “active”. The “SI J774.1/T. cruzi” value in data set [6] is reported as 13.
On to `C/C(=N/N=c1\[nH]c(C(=O)O)cs1)[C@@H]1CC[C@H]2[C@@H]3CC=C4CC(O)CC[C@]4(C)[C@H]3CC[C@]12C` (stereo partly drawn) [Compound 18, (Z)-2-((E)-(1-((8S,9S,10R,13S,14S,17R)-3-hydroxy-10,13-dimethyl-2,3,4,7,8,9,10,11,12,13,14,15,16,17-tetradecahydro-1H-cyclopenta[a]phenanthren-17-yl)ethylidene)hydrazono)-2,3-dihydrothiazole-4-carboxylic acid], for which the melting point was 281 to 283 °C.
As to `C=CCn1c(C(=O)O)cs/c1=N/N=C(/C)[C@@H]1CC[C@H]2[C@@H]3CC=C4CC(O)CC[C@]4(C)[C@H]3CC[C@]12C` (stereo partly drawn) [Compound 19, (Z)-3-allyl-2-((E)-(1-((8S,9S,10R,13S,14S,17R)-3-hydroxy-10,13-dimethyl-2,3,4,7,8,9,10,11,12,13,14,15,16,17-tetradecahydro-1H-cyclopenta[a]phenanthren-17-yl)ethylidene)hydrazono)-2,3-dihydrothiazole-4-carboxylic acid], the melting point was 145 to 149 °C.
Consider `C=CCn1c(-c2ccc(Cl)cc2)csc1=NN=C(C)[C@H]1CC[C@H]2[C@@H]3CC=C4C[C@@H](O)CC[C@]4(C)[C@H]3CC[C@]12C` [Compound 20, 1-(3β-Hydroxy-pregn-5-ene-20E-ylidene)-2-(3-allyl-4-(4-chloro-pheny)thiazol-2(3H)-ylidene)azine], for which the IC50 was greater than 25 µM in data set [2] (Table 1S, read-out: IC50 ± %SD (µM) promastigotes L. infantum); greater than 25 µM in data set [3]; greater than 25 µM in data set [4] (Table 1S, read-out: IC50 ± %SD (µM) epimastigotes T. cruzi).
With `CCCCCCCCCCCCCCCCOP(=O)([O-])OCC[N+](C)(C)C` [Miltefosine, reference compound], the IC50 in data set [1] (setting [9]) is 5 ± 2 µM; in data set [2] (setting [7]), 0.9 ± 0.2 µM; in data set [4] (setting [8]), 8 ± 2 µM; in data set [6], 50 ± 7 µM. For the same compound, the “SI J774.1/L. infantum” value in data set [6] (ratio IC50 murine macrophages / IC50 L. infantum promastigotes) is listed as 56. The “SI J774.1/T. cruzi” value in data set [6] stood at 6.
Turning to `CC1CS(=O)(=O)CCN1/N=C/c1ccc([N+](=O)[O-])o1` (centres unmarked) [Nifurtimox, reference compound], the figures for the IC50 in data set [1] (setting [9]), in data set [2] (setting [7]) and in data set [4] (setting [8]) were 10 ± 2 µM, 6 ± 2 µM and 7 ± 2 µM, respectively.
As for `CC(=O)[C@H]1CC[C@H]2[C@@H]3CC=C4C[C@@H](O)CC[C@]4(C)[C@H]3CC[C@]12C` [Pregnenolone, 3β-hydroxyl-5-pregnen-20-one, reference compound], the IC50 in data set [1] (setting [9]), in data set [2] (setting [7]), in data set [4] (setting [8]) and in data set [5] was greater than 25 µM in each case.
